Results as given in ChEMBL document CHEMBL5291721, “A preclinical secondary pharmacology resource illuminates target-adverse drug reaction associations of marketed drugs” (Nat Commun, 2023).

How the values were obtained:
Melanocortin receptor 3 = Melanocortin receptor 3 (Homo sapiens, UniProt P41968)
D(3) dopamine receptor = D(3) dopamine receptor (Homo sapiens, UniProt P35462)
[1] = target: T1, Amine oxidase [flavin-containing] A (Homo sapiens, UniProt P21397); format: functional
T1 sequence (P21397 whole entry): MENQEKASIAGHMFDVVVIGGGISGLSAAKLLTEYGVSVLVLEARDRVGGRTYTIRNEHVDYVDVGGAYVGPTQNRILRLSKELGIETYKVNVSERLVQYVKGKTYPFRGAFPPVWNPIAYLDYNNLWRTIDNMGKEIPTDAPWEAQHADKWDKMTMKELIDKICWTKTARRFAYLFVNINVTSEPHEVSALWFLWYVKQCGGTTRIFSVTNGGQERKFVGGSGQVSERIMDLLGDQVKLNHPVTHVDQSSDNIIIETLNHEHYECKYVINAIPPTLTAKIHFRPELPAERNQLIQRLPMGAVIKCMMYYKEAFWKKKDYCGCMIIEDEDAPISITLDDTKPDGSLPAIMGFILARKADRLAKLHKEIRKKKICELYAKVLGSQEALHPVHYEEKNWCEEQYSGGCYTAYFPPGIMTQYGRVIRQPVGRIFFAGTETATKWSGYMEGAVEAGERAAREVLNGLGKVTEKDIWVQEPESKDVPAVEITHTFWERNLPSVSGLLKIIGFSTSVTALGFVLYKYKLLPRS

Adenosine receptor A3 = target: T2, Adenosine receptor A3 (Homo sapiens, UniProt P0DMS8)
T2 sequence (P0DMS8 whole entry): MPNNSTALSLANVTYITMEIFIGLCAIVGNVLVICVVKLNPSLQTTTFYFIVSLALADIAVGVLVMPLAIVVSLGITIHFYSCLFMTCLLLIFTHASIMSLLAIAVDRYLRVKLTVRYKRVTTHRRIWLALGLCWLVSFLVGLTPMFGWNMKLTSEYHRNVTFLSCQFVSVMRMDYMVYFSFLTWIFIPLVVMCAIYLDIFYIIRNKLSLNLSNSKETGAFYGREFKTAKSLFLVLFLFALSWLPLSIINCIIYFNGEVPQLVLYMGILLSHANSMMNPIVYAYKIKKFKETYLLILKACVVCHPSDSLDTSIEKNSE

[2] = target: 3',5'-cyclic-AMP phosphodiesterase 4D (Homo sapiens, UniProt Q08499); format: functional
Chain of 3',5'-cyclic-AMP phosphodiesterase 4D (Q08499 whole entry): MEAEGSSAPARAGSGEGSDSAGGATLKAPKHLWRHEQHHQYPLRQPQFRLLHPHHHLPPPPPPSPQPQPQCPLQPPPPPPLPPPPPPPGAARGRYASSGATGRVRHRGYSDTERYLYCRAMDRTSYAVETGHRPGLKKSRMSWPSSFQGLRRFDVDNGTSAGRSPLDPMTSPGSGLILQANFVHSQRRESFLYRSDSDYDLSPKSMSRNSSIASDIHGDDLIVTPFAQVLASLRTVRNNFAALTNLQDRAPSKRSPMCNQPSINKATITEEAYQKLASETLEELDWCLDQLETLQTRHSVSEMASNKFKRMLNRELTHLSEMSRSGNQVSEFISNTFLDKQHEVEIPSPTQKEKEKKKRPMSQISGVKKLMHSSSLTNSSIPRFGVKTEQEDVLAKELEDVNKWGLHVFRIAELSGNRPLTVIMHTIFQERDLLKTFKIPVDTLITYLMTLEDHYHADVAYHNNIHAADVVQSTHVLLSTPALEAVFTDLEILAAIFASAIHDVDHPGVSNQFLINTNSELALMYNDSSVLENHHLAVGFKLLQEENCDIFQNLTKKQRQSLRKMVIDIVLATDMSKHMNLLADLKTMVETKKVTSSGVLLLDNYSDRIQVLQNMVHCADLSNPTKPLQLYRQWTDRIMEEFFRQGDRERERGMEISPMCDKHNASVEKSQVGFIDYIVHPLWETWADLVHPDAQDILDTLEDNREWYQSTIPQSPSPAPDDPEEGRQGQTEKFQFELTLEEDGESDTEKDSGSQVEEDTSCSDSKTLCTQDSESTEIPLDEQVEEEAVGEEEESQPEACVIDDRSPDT

[3] = target: T3, 5-hydroxytryptamine receptor 1A (Homo sapiens, UniProt P08908); format: functional, cell-based
T3 sequence (P08908 whole entry): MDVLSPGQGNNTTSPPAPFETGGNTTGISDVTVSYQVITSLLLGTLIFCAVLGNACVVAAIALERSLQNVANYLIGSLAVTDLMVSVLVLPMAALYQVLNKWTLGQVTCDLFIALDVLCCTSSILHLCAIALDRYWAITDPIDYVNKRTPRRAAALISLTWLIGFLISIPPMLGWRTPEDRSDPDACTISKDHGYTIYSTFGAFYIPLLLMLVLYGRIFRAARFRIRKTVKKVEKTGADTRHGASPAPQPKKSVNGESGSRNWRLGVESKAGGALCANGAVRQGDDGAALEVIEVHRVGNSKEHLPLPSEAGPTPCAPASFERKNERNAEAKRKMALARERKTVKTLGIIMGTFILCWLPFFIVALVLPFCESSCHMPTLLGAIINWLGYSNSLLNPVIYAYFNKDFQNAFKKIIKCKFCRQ

[4] = target: Voltage-dependent L-type calcium channel subunit alpha-1C (Rattus norvegicus, UniProt P22002); format: functional
Chain of Voltage-dependent L-type calcium channel subunit alpha-1C (P22002 whole entry): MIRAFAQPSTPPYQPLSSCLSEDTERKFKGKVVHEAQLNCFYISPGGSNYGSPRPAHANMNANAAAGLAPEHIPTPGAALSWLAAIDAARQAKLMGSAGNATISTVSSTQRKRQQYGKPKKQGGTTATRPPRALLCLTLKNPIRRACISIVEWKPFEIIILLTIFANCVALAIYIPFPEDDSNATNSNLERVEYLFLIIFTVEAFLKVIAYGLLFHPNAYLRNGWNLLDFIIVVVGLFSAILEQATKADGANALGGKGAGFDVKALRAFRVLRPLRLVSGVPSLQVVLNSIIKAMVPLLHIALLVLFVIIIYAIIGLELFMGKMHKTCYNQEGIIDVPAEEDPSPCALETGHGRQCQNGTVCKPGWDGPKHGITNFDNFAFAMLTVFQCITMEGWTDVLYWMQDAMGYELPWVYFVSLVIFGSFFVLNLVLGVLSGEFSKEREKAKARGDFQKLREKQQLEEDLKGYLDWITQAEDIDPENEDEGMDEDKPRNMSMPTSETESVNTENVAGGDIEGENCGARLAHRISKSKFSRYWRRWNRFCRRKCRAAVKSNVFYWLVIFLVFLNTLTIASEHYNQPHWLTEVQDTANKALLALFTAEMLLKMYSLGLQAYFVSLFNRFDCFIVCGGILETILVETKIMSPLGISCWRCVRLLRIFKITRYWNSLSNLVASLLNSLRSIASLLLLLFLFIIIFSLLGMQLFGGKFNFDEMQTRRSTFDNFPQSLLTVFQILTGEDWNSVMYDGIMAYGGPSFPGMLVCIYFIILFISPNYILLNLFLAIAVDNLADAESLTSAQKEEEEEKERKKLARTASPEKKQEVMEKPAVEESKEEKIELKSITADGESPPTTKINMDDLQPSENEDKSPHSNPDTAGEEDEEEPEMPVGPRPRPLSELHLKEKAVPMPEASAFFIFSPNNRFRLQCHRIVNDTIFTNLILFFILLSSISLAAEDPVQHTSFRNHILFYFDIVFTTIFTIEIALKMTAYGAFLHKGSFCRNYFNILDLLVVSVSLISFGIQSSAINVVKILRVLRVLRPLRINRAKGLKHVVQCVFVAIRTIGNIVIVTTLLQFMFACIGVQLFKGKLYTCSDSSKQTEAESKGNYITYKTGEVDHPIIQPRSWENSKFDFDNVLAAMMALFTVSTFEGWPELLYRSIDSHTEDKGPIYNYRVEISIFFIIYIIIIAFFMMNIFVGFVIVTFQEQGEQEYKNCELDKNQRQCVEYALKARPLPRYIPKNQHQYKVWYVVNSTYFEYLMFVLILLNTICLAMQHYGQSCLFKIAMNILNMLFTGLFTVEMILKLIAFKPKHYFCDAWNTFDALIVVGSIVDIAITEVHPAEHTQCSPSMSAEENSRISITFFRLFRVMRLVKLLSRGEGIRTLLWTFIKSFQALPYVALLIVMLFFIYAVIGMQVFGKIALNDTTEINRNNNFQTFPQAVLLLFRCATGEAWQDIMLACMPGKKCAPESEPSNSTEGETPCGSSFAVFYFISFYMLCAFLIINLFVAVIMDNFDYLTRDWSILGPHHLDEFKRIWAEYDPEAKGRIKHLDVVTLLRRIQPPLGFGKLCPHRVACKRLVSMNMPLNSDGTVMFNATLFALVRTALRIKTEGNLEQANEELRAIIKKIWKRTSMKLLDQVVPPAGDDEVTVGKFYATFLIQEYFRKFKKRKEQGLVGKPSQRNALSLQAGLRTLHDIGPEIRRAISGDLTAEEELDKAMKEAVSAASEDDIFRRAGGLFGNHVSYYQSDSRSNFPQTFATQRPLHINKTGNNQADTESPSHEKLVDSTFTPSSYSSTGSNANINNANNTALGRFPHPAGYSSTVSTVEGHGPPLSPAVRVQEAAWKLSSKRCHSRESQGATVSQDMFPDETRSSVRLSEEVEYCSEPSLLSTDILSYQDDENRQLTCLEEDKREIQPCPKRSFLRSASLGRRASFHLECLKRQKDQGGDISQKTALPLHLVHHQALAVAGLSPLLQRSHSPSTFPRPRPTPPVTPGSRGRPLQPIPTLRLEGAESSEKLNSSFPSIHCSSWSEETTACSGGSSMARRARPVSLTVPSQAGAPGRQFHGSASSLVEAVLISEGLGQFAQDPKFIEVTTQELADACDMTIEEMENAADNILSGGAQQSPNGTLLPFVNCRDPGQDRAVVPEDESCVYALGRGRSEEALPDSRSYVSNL

Histamine H2 receptor = Histamine H2 receptor (Homo sapiens, UniProt P25021); format: functional, cell-based
Chain of Histamine H2 receptor (P25021 whole entry): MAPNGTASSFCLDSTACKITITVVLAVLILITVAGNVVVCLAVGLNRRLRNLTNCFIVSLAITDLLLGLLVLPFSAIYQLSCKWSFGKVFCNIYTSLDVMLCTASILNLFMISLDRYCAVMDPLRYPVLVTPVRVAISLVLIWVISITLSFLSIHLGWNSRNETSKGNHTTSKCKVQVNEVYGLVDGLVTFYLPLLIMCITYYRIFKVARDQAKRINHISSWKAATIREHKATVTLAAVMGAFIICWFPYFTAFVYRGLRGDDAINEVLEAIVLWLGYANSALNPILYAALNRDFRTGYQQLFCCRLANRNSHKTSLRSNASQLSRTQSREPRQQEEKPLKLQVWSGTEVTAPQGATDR

[5] = target: cGMP-inhibited 3',5'-cyclic phosphodiesterase 3A (Homo sapiens, UniProt Q14432); format: functional
Progesterone receptor = target: T4, Progesterone receptor (Homo sapiens, UniProt P06401); format: functional
T4 sequence (P06401 whole entry): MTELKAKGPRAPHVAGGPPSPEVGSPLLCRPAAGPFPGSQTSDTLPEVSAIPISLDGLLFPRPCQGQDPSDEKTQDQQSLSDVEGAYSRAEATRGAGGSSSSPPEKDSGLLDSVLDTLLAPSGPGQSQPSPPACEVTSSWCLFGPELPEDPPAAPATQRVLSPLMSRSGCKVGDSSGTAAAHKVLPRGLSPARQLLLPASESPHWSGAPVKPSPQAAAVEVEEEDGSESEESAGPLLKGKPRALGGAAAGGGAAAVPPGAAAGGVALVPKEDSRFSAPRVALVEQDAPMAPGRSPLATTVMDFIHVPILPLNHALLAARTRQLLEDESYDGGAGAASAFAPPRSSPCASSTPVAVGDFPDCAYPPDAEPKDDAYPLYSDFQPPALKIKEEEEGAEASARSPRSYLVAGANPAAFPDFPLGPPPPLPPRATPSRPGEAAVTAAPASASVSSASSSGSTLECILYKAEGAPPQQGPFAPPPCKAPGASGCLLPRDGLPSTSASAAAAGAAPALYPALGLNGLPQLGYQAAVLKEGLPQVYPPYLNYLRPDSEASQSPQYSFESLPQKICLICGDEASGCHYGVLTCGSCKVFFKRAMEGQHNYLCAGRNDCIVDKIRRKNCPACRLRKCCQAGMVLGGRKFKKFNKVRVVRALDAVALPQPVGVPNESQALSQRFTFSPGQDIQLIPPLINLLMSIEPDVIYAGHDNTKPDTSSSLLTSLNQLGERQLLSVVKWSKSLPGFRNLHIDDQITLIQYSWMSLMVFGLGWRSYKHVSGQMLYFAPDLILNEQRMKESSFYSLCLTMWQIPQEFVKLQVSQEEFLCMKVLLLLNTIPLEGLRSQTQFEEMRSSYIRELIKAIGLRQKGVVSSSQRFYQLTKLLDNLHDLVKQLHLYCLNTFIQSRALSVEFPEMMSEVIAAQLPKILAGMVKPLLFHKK
Further: assay procedure not described here.

Chain of Melanocortin receptor 3 (P41968 whole entry): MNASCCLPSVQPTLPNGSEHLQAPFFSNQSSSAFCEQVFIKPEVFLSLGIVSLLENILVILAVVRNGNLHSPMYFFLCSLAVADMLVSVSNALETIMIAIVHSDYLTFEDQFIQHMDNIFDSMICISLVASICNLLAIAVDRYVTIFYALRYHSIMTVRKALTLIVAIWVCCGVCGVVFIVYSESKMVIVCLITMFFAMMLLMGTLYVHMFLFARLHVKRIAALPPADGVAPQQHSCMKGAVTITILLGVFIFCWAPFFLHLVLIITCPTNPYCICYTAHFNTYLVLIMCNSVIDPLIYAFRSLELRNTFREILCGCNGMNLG
Chain of D(3) dopamine receptor (P35462 whole entry): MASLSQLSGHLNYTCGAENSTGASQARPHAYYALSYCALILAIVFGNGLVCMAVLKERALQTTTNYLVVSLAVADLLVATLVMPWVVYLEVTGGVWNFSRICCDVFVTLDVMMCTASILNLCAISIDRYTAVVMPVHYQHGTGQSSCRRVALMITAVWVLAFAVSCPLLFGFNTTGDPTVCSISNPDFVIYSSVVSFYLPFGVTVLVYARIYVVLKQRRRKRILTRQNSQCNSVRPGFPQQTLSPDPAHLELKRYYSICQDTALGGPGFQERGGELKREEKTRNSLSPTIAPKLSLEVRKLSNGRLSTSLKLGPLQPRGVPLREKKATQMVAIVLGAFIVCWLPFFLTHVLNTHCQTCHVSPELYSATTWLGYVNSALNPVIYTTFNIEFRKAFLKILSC

Row | SMILES | AC50 (Melanocortin receptor 3) | AC50 (D(3) dopamine receptor) | AC50 [1] | AC50 (Adenosine receptor A3) | AC50 [2] | AC50 [3] | AC50 [4] | AC50 (Histamine H2 receptor) | AC50 [5] | AC50 (Progesterone receptor)
1 | Oc1cc(O)c(Cl)cn1 | > 30 µM | > 30 µM | > 30 µM | > 30 µM | > 30 µM | > 30 µM | > 30 µM | > 30 µM | > 30 µM | –
2 | C[N+]12CCC(CC1)C(OC(=O)C(O)(c1ccccc1)c1ccccc1)C2 (stereo not drawn) | > 30 µM | > 30 µM | > 30 µM | > 30 µM | > 30 µM | > 30 µM | – | > 30 µM | > 30 µM | > 30 µM
3 | Cc1cc(=O)n(-c2ccccc2)n1C [ANTIPYRINE] | > 30 µM | > 10 µM | > 10 µM | > 30 µM | > 30 µM | > 30 µM | > 10 µM | > 10 µM | > 30 µM | –
4 | CO/N=C(\C(=O)N[C@@H]1C(=O)N2C(C(=O)O)=CCS[C@H]12)c1csc(N)n1 [CEFTIZOXIME] | > 30 µM | – | > 30 µM | > 30 µM | > 30 µM | > 30 µM | – | > 30 µM | > 30 µM | > 30 µM
5 | CO/N=C(\C(=O)N[C@@H]1C(=O)N2C(C(=O)O)=C(CSc3nc(=O)c(=O)[nH]n3C)CS[C@H]12)c1csc(N)n1 [CEFTRIAXONE] | > 30 µM | > 30 µM | > 30 µM | > 30 µM | > 30 µM | > 30 µM | – | > 30 µM | > 30 µM | > 30 µM
6 | COc1cc(N)c(Cl)cc1C(=O)NC1CCN(CCCOc2ccc(F)cc2)CC1OC (stereo not drawn) [CISAPRIDE] | > 30 µM | 6.3 µM | > 10 µM | > 30 µM | > 30 µM | > 10 µM | > 10 µM | > 10 µM | > 30 µM | –
7 | CCOC(=O)C(C)(C)Oc1ccc(Cl)cc1 [CLOFIBRATE] | > 30 µM | > 30 µM | > 10 µM | > 30 µM | > 30 µM | > 10 µM | > 10 µM | > 10 µM | > 30 µM | –
8 | CCCCOc1ccc(C(=O)CCN2CCCCC2)cc1 [DYCLONINE] | > 30 µM | > 10 µM | > 10 µM | > 30 µM | 11 µM | > 10 µM | > 10 µM | > 10 µM | > 10 µM | –
9 | CC(C)NC[C@H](O)COc1ccc(CC(N)=O)cc1 [ESATENOLOL] | > 30 µM | > 10 µM | > 10 µM | > 30 µM | > 10 µM | > 10 µM | – | > 10 µM | > 10 µM | –
10 | O=C(NCCO[N+](=O)[O-])c1cccnc1 [NICORANDIL] | > 30 µM | > 30 µM | > 30 µM | > 30 µM | > 30 µM | > 30 µM | – | > 30 µM | > 30 µM | > 30 µM
